Patent publication US20060252807A1, “Novel ortho-terphenyl inhibitors of p38 kinase and methods of treating inflammatory disorders” (Kalypsys, Inc., priority 2005, published 2006)

target: T1, active p38 alpha enzyme (Upstate Biotechnology) (Homo sapiens, UniProt Q16539); assay: p38α biochemical assay (ATP turnover, luminescent detection, Cambrex PKlight); conditions: p38α biochemical assay, Table 1 Biological Activity
T1 construct: purchased Upstate Biotechnology
How it was run: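 Active human p38α was incubated with full-length MapkapK2 protein as substrate and 1.4 uM ATP (final) for 2 hours at 30C. Buffer: 200 mM Tris, 100 mM MgCl2, 1.5 mM EGTA, 4 mM CaCl2, 20 mM MOPS, 1 mM EDTA, 1% glycerol, 0.1% β-mercaptoethanol, 1 mg/ml BSA. Total ATP turnover read by luminescence.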

T1 sequence (Q16539 whole entry): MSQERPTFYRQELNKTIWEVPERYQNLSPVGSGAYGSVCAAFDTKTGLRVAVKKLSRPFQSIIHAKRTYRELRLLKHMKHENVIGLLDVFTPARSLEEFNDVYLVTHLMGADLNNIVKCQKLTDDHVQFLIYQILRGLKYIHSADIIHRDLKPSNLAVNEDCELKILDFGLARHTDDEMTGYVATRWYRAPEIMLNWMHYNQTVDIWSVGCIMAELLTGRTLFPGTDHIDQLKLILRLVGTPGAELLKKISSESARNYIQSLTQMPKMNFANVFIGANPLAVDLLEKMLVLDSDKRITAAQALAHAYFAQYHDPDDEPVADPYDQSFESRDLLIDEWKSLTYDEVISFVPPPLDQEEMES

| Structure (SMILES) | IC50 |
| --- | --- |
| CC(C)NC(=O)c1csc(-c2c(-c3ccc(F)cc3)noc2CNC(=O)c2cc(F)c(Cl)cc2F)n1 [Example 734] | > 1000 nM |
| COc1ccc(/C=C/C(=O)NCc2onc(-c3ccc(F)cc3)c2-c2nc(C(=O)NC(C)C)cs2)cc1O [Example 737] | > 1000 nM |
| CCCCOc1ccc(C(=O)NCc2onc(-c3ccc(F)cc3)c2-c2nc(C(=O)NC(C)C)cs2)cc1 [Example 738] | > 1000 nM |
| CC(C)NC(=O)c1csc(-c2c(-c3ccc(F)cc3)noc2CNC(=O)c2cc3cc(Cl)ccc3o2)n1 [Example 739] | > 1000 nM |
| COc1cc(C(=O)NCc2onc(-c3ccc(F)cc3)c2-c2nc(C(=O)NC(C)C)cs2)cc(OC)c1O [Example 741] | > 1000 nM |
| CC(C)NC(=O)c1csc(-c2c(-c3ccc(F)cc3)noc2CNC(=O)c2ccccc2-c2ccccc2)n1 [Example 742] | > 1000 nM |
| CC(C)NC(=O)c1csc(-c2c(-c3ccc(F)cc3)noc2CNC(=O)c2ccc(Br)cc2)n1 [Example 744] | > 1000 nM |
| CC(C)NC(=O)c1csc(-c2c(-c3ccc(F)cc3)noc2CNC(=O)c2cccc(Cl)c2[N+](=O)[O-])n1 [Example 745] | > 1000 nM |
| CC(C)NC(=O)c1csc(-c2c(-c3ccc(F)cc3)noc2CNC(=O)c2ccc([N+](=O)[O-])cc2Cl)n1 [Example 747] | ≤ 1000 nM |
| CC(C)NC(=O)c1csc(-c2c(-c3ccc(F)cc3)noc2CNC(=O)c2cncc(Br)c2)n1 [Example 752] | > 1000 nM |
| CC(C)NC(=O)c1csc(-c2c(-c3ccc(F)cc3)noc2CNC(=O)Cc2ccc(C(F)(F)F)cc2)n1 [Example 754] | > 1000 nM |
| CC(C)Cc1ccc(C(C)C(=O)NCc2onc(-c3ccc(F)cc3)c2-c2nc(C(=O)NC(C)C)cs2)cc1 (centres unmarked) [Example 755] | > 1000 nM |
| CC(C)NC(=O)c1csc(-c2c(-c3ccc(F)cc3)noc2CNC(=O)c2cc(Cl)c(O)c(Cl)c2)n1 [Example 756] | > 1000 nM |
| CC(C)NC(=O)c1csc(-c2c(-c3ccc(F)cc3)noc2CNC(=O)c2c(F)c(F)c(F)c(F)c2F)n1 [Example 757] | > 1000 nM |
| COc1cc(OC)c(C(=O)NCc2onc(-c3ccc(F)cc3)c2-c2nc(C(=O)NC(C)C)cs2)c(OC)c1 [Example 758] | > 1000 nM |
| COc1cc(OC)c(C(=O)NCc2onc(-c3ccc(F)cc3)c2-c2nc(C(=O)NC(C)C)cs2)cc1OC [Example 759] | > 1000 nM |
| COc1cc(C(=O)NCc2onc(-c3ccc(F)cc3)c2-c2nc(C(=O)NC(C)C)cs2)cc(OC)c1OC [Example 760] | > 1000 nM |

| Structure (SMILES) | IC50 |
| --- | --- |
| COc1ccc(C(=O)NCc2onc(-c3ccc(F)cc3)c2-c2nc(C(=O)NC(C)C)cs2)c(OC)c1OC [Example 761] | > 1000 nM |
| CC(C)NC(=O)c1csc(-c2c(-c3ccc(F)cc3)noc2CNC(=O)c2ccccc2Cc2ccccc2)n1 [Example 762] | > 1000 nM |
| CC(C)NC(=O)c1csc(-c2c(-c3ccc(F)cc3)noc2CNC(=O)c2cccc(Oc3ccccc3)c2)n1 [Example 763] | > 1000 nM |
| CC(C)NC(=O)c1csc(-c2c(-c3ccc(F)cc3)noc2CNC(=O)c2ccccc2Oc2ccccc2)n1 [Example 764] | > 1000 nM |
| CC(C)NC(=O)c1csc(-c2c(-c3ccc(F)cc3)noc2CNC(=O)c2ccc(Oc3ccccc3)cc2)n1 [Example 765] | > 1000 nM |
| CC(C)NC(=O)c1csc(-c2c(-c3ccc(F)cc3)noc2CNC(=O)c2ccc(-c3ccc(O)cc3)cc2)n1 [Example 766] | > 1000 nM |
| Cc1ccc(C(=O)NCc2onc(-c3ccc(F)cc3)c2-c2nc(C(=O)NC(C)C)cs2)cc1Br [Example 768] | > 1000 nM |
| CC(C)NC(=O)c1csc(-c2c(-c3ccc(F)cc3)noc2CNC(=O)Cc2ccc(Br)cc2)n1 [Example 769] | > 1000 nM |
| CC(C)NC(=O)c1csc(-c2c(-c3ccc(F)cc3)noc2CNC(=O)C2CCCN2C(=O)OC(C)(C)C)n1 (centres unmarked) [Example 770] | > 1000 nM |
| CCOc1ccc2ccccc2c1C(=O)NCc1onc(-c2ccc(F)cc2)c1-c1nc(C(=O)NC(C)C)cs1 [Example 772] | > 1000 nM |
| CC(C)NC(=O)c1csc(-c2c(-c3ccc(F)cc3)noc2CNC(=O)C(NC(=O)OC(C)(C)C)C(C)C)n1 (centres unmarked) [Example 773] | > 1000 nM |
| CC1=NN(c2ccc(C(=O)NCc3onc(-c4ccc(F)cc4)c3-c3nc(C(=O)NC(C)C)cs3)cc2)C(=O)C1 [Example 776] | > 1000 nM |
| Cc1nc(Br)sc1C(=O)NCc1onc(-c2ccc(F)cc2)c1-c1nc(C(=O)NC(C)C)cs1 [Example 777] | > 1000 nM |
| CC(C)NC(=O)c1csc(-c2c(-c3ccc(F)cc3)noc2CNC(=O)c2c3ccccc3cc3ccccc23)n1 [Example 778] | > 1000 nM |
| CC(=O)NC(Cc1ccc(O)cc1)C(=O)NCc1onc(-c2ccc(F)cc2)c1-c1nc(C(=O)NC(C)C)cs1 (centres unmarked) [Example 780] | > 1000 nM |
| CC(C)NC(=O)c1csc(-c2c(-c3ccc(F)cc3)noc2CNC(=O)c2c(Cl)cc(Cl)cc2Cl)n1 [Example 781] | > 1000 nM |
| COc1cc(C(=O)NCc2onc(-c3ccc(F)cc3)c2-c2nc(C(=O)NC(C)C)cs2)c([N+](=O)[O-])cc1OC [Example 782] | > 1000 nM |

Next, values leading:

| IC50 | Structure (SMILES) |
| --- | --- |
| > 1000 nM | CC(C)NC(=O)c1csc(-c2c(-c3ccc(F)cc3)noc2CNC(=O)c2cc(F)c(F)cc2Cl)n1 [Example 733] |
| > 1000 nM | CCN(CC)c1ccc(C(=O)NCc2onc(-c3ccc(F)cc3)c2-c2nc(C(=O)NC(C)C)cs2)cc1 [Example 735] |
| > 1000 nM | COc1cc(/C=C/C(=O)NCc2onc(-c3ccc(F)cc3)c2-c2nc(C(=O)NC(C)C)cs2)ccc1O [Example 736] |
| > 1000 nM | COc1ccc([N+](=O)[O-])c(C(=O)NCc2onc(-c3ccc(F)cc3)c2-c2nc(C(=O)NC(C)C)cs2)c1 [Example 740] |
| > 1000 nM | CC(C)NC(=O)c1csc(-c2c(-c3ccc(F)cc3)noc2CNC(=O)c2cccc(Br)c2)n1 [Example 743] |
| > 1000 nM | CC(C)NC(=O)c1csc(-c2c(-c3ccc(F)cc3)noc2CNC(=O)c2cc([N+](=O)[O-])ccc2Cl)n1 [Example 746] |
| > 1000 nM | CC(C)NC(=O)c1csc(-c2c(-c3ccc(F)cc3)noc2CNC(=O)c2ccc(Cl)cc2[N+](=O)[O-])n1 [Example 748] |
| > 1000 nM | CC(C)NC(=O)c1csc(-c2c(-c3ccc(F)cc3)noc2CNC(=O)c2ccc(Cl)c([N+](=O)[O-])c2)n1 [Example 749] |
| > 1000 nM | CC(C)NC(=O)c1csc(-c2c(-c3ccc(F)cc3)noc2CNC(=O)c2cc(Cl)ccc2[N+](=O)[O-])n1 [Example 750] |
| > 1000 nM | CC(C)NC(=O)c1csc(-c2c(-c3ccc(F)cc3)noc2CNC(=O)c2cccc(Br)n2)n1 [Example 751] |
| > 1000 nM | CC(C)NC(=O)c1csc(-c2c(-c3ccc(F)cc3)noc2CNC(=O)c2cc(F)c(F)cc2[N+](=O)[O-])n1 [Example 753] |
| > 1000 nM | Cc1cc(C(=O)NCc2onc(-c3ccc(F)cc3)c2-c2nc(C(=O)NC(C)C)cs2)ccc1Br [Example 767] |
| > 1000 nM | CC(C)NC(=O)c1csc(-c2c(-c3ccc(F)cc3)noc2CNC(=O)/C=C/c2ccccc2C(F)(F)F)n1 [Example 771] |
| > 1000 nM | CC(C)NC(=O)c1csc(-c2c(-c3ccc(F)cc3)noc2CNC(=O)C(NC(=O)OC(C)(C)C)C(C)C)n1 (centres unmarked) [Example 774] |
| > 1000 nM | CC(C)NC(=O)c1csc(-c2c(-c3ccc(F)cc3)noc2CNC(=O)CCc2cccc(C(F)(F)F)c2)n1 [Example 775] |
| > 1000 nM | CC(C)NC(=O)c1csc(-c2c(-c3ccc(F)cc3)noc2CNC(=O)c2cc(C(C)C)cc(C(C)C)c2O)n1 [Example 779] |
